Measured values taken from PMC4245550, “Exploring the Chemodiversity and Biological Activities of the Secondary Metabolites from the Marine Fungus Neosartorya pseudofischeri” (Marine Drugs, 2014).
In brackets after ≈: the same amount, converted by molar mass. Read-outs that look alike come from different tables or passages of the source.

Tests used:
[1] = test system: Staphylococcus aureus (ATCC29213), Methicillin-resistant staphylococcus aureus (R3708) and Escherichia coli (ATCC25922); assay: Antibacterial activity against three multidrug-resistant bacteria, broth dilution (summary statements)
[2] = test system: human colon cancer cell line HCT-116; assay: Cytotoxicity, MTS assay
[3] = test system: human embryonic kidney (HEK) 293 cell line; assay: Cytotoxicity, MTS assay
[4] = test system: Staphylococcus aureus (ATCC29213); assay: Antibacterial activity, broth dilution method (Mueller–Hinton broth), MIC
[5] = test system: Methicillin-resistant staphylococcus aureus (R3708); assay: as above
[6] = test system: Escherichia coli (ATCC25922); assay: as above
[7] = ATCC25922|ATCC29213, read-out: MIC values ranging over the three bacteria

Molecule | MIC [1] | IC50 ([2]; Homo sapiens, HCT-116, 72 h) | IC50 ([3]; Homo sapiens, HEK293, 72 h) | MIC [4] | MIC [5] | MIC [6] | also measured
CN1C(=O)C(=O)n2c(cc3ccccc32)C1=O [Compound 5, 1,2,3,4-tetrahydro-2-methyl-1,3,4-trioxopyrazino[1,2-a]indole] | > 256 µg/mL | > 50 µM | > 50 µM | – | – | – | –
CNC(=O)c1cc2ccccc2[nH]1 [Compound 6, N-methyl-1H-indole-2-carboxamide] | > 256 µg/mL | – | – | – | – | – | –
CSC1(CO)NC(=O)C(Cc2ccccc2)(SC)NC1=O (stereo not drawn) [Compound 13, bis-N-norgliovictin] | > 256 µg/mL | > 50 µM | > 50 µM | – | – | – | –
CN[C@H](CC(C)C)C(=O)N[C@H]1C(=O)N[C@@H](CC(N)=O)C(=O)N[C@H]2C(=O)N[C@H]3C(=O)N[C@H](C(=O)N[C@H](C(=O)O)c4cc(O)cc(O)c4-c4cc3ccc4O)[C@H](O)c3ccc(c(Cl)c3)Oc3cc2cc(c3O[C@@H]2O[C@H](CO)[C@@H](O)[C@H](O)[C@H]2O[C@H]2C[C@](C)(N)[C@H](O)[C@H](C)O2)Oc2ccc(cc2Cl)[C@H]1O [Vancomycin, reference compound] | – | – | – | 0.84 µM (≈ 1.22 µg/mL) | 2.01 µM (≈ 2.91 µg/mL) | – | –
COC1(CO)C(=O)n2c(cc3ccccc32)C(=O)N1C (stereo not drawn) [Compound 2, 1,2,3,4-tetrahydro-3-methoxyl-3-hydroxylmethyl-2-methyl-1,4-dioxopyrazino[1,2-a]indole] | > 256 µg/mL | – | – | – | – | – | –
CN1C(=O)C2(S)CC3=CC=CC(O)C3N2C(=O)C1(S)CO (stereo not drawn) [Compound 9, reduced gliotoxin] | – | 0.43 ± 0.04 µM | 1.26 ± 0.04 µM | 48.8 µM (≈ 16 µg/mL) | 1.52 µM (≈ 0.499 µg/mL) | 97.6 µM (≈ 32 µg/mL) | MIC [1, 7]: 1.52 to 97.6 µM
C=c1c(=O)n2c(cc3ccccc32)c(=O)n1C [Compound 4, 1,2,3,4-tetrahydro-2-methyl-3-methylene-1,4-dioxopyrazino[1,2-a]indole] | – | 10.3 ± 1.41 µM | 30.1 ± 0.9 µM | 283 µM (≈ 64 µg/mL) | 70.7 µM (≈ 16 µg/mL) | > 1130 µM | –
CC1(C)S[C@@H]2[C@H](NC(=O)[C@H](N)c3ccccc3)C(=O)N2[C@H]1C(=O)O [Ampicillin sodium, reference compound] | – | – | – | 8.07 µM | 129 µM | 6.73 µM | –
CC1C(=O)n2c(cc3ccccc32)C(=O)N1C (stereo not drawn) [Compound 3, 1,2,3,4-tetrahydro-2,3-dimethyl-1,4-dioxopyrazino[1,2-a]indole] | > 256 µg/mL | – | – | – | – | – | –
CSC1(CO)C(=O)N2c3ccccc3CC2(SC)C(=O)N1C (stereo not drawn) [Compound 12, didehydrobisdethiobis(methylthio)gliotoxin] | > 256 µg/mL | > 50 µM | > 50 µM | – | – | – | –
CN1C(=O)[C@]23CC4=CC=C[C@H](O)[C@H]4N2C(=O)[C@@]1(CO)SS3 [Compound 7, gliotoxin] | – | 1.24 ± 0.38 µM | 1.58 ± 0.03 µM | 12.2 µM (≈ 3.98 µg/mL) | 1.53 µM (≈ 0.499 µg/mL) | 24.5 µM (≈ 8.01 µg/mL) | MIC [1, 7]: 1.52 to 97.6 µM
O=c1[nH]cc(F)c(=O)[nH]1 [5-Fluorouracil, reference compound] | – | 2.04 ± 0.22 µM | – | – | – | – | –
bisdethiobis(methylthio)gliotoxin [Compound 11] | – | – | – | – | – | – | IC50 ([2]; HCT-116 cells, 72 h, MTS, n = 5): 8.59 ± 0.96 µM; IC50 ([3]; 293 cells, 72 h, MTS, n = 5): 16.4 ± 0.38 µM
CSC1(CO)C(=O)N2C3C(=CC=CC3OC(C)=O)CC2(SC)C(=O)N1C (stereo not drawn) [Compound 10, 6-acetylbis(methylthio)gliotoxin] | > 256 µg/mL | > 50 µM | > 50 µM | – | – | – | –
CC(=O)OC1C=CC=C2CC34SSC(CO)(C(=O)N3C21)N(C)C4=O (stereo not drawn) [Compound 8, acetylgliotoxin] | – | 0.89 ± 0.04 µM | 4.49 ± 0.24 µM | 86.9 µM (≈ 32 µg/mL) | 21.7 µM (≈ 8.01 µg/mL) | > 696 µM | –
